# Reference: patent US11066419B2, “1H-pyrrole-2,5-dione compounds and methods of using same” (Frequency Therapeutics, Inc., priority 2016, dated 2021)
# How the values were obtained:
# [1] = biological target: recombinant human GSK3α (Homo sapiens, UniProt P49840); test: In vitro enzymatic assay for inhibition of GSK3α (Kinase-Glo Max luminescence); format: biochemical; conditions: 10 uM ATP, 0.1 mg/ml GSKtide, 30° C. 40 minutes, read-out: Potency Alpha
# Protocol: (§1) Enzymatic activities using recombinant human GSK3 using an in vitro enzymatic assay for inhibition GSK3α and GSK3β.
# (§2) The assay was performed using Kinase-Glo Max luminescence kinase assay kit (Promega). It measures kinase activity by quantitating the amount of ATP remaining in solution following a kinase reaction. The luminescent signal from the assay is correlated with the amount of ATP present and is inversely correlated with the amount of kinase activity. The compounds were diluted in 10% DMSO and 5 μl of the dilution was added to a 50 μl reaction so that the final concentration of DMSO is 1% in all of reactions. The enzymatic reactions were conducted at 30° C. for 40 minutes. The 50 μl reaction mixture contains 40 mM Tris, pH 7.4, 10 mM MgCl2, 0.1 mg/ml BSA, 2 mM DTT, 0.1 mg/ml GSKtide substrate, 10 uM ATP and GSK3. After the enzymatic reaction, 50 μl of Kinase-Glo Max Luminescence kinase assay solution (Promega) was added to each reaction and incubate the plate for 15 minutes at room temperature. Luminescence signal was measured using a BioTek Synergy 2 microplate reader.
# (§3) Kinase activity assays were performed in duplicate at each concentration. The luminescence data were analyzed using the computer software, Graphpad Prism. The difference between luminescence intensities in the absence of Kinase (Lut) and in the presence of Kinase (Luc) was defined as 100% activity (Lut−Luc). Using luminescence signal (Lu) in the presence of the compound, % activity was calculated as: % activity={(Lut−Lu)/(Lut−Luc)}×100%, where Lu=the luminescence intensity in the presence of the compound (all percent activities below zero were shown zero in the table).
# (§4) The values of % activity versus a series of compound concentrations were then plotted using non-linear regression analysis of Sigmoidal dose-response curve generated with the equation Y=B+(T−B)/1+10((Log EC50−X)×Hill Slope), where Y=percent activity, B=minimum percent activity, T=maximum percent activity, X=logarithm of compound and Hill Slope=slope factor or Hill coefficient. The IC50 value was determined by the concentration causing a half-maximal percent activity.
# [2] = biological target: recombinant human GSK3β (Homo sapiens, UniProt P49841); test: In vitro enzymatic assay for inhibition of GSK3β (Kinase-Glo Max luminescence); format: biochemical; conditions: 10 uM ATP, 0.1 mg/ml GSKtide, 30° C. 40 minutes, read-out: Potency Beta
# Sequence of recombinant human GSK3β (P49841 whole entry): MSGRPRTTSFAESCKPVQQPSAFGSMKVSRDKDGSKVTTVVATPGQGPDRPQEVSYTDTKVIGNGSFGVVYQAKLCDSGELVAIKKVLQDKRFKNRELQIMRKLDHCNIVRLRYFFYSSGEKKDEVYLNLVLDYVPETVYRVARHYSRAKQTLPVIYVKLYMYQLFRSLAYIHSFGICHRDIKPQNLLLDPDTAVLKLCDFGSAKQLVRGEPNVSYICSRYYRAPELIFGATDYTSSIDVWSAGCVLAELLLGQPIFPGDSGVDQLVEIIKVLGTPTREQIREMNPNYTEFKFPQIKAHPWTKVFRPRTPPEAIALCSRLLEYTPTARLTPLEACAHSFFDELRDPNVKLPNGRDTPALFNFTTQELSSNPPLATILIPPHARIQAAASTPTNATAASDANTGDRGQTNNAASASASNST
# Protocol: as §1, §2, §3, §4
# [3] = system: Lgr5-positive cells; test: Expansion of Lgr5-positive cells (cochlear stem cell expansion, 3D Matrigel culture, flow cytometry for Lgr5-GFP); format: cell-based, mouse; conditions: for EC50: Mus musculus, 240 h, Lgr5-positive cell expansion, cochlear cells of neonatal Lgr5-EGFP-IRES-Cre-ER mice, 10 days in culture, read-out: Potency; for % of Cells: percentage of Lgr5-GFP-positive cells after 10 days (D10) in culture, flow cytometer
# Protocol: Lgr5-EGFP-IRES-Cre-ER mice (Barker et al., 2007) (http://jaxmice.jax.org/strain/008875.html) are used to analyze the effects of small molecules on cochlear stem cell expansion.
# Isolation of stem cells from the inner ear: All animal studies are conducted under an approved institutional protocol according to National Institutes of Health guidelines. For experiments with neonatal mice (postnatal days 1-3), the cochleae are dissected in HBSS and the organ of Corti are separated from the stria vascularis and the modiolus. The organs of Corti are then treated with Cell Recovery Solution (Corning) for 1 h to separate cochlear epithelium from the underlying mesenchyme. Epithelia are then collected and treated with TrypLE (Life Technologies) for 15-20 minutes at 37° C. Single cells obtained by mechanical trituration are filtered (40 μm) and suspended in Matrigel (Corning) for 3D culture.
# Cells are cultured in a 1:1 mixture of DMEM and F12, supplemented with Glutamax (GIBCO), N2, B27 (Invitrogen), EGF (50 ng/ml; Chemicon), bFGF (50 ng/ml; Chemicon), IGF1 (50 ng/ml; Chemicon) and the composition provided herein. Media are changed every other day.
# Lgr5-positive cells are quantified after 10 days (D10) in culture in multiple conditions. Cell colonies are dissociated into single cells using TrypLE (Gibco). The cells are then stained with propidium iodide (PI) and are analyzed using a flow cytometer for Lgr5-GFP expression. The number of GFP-positive cells and the percentage of GFP-positive cells are quantified.
# Sequence of recombinant human GSK3α (P49840 whole entry): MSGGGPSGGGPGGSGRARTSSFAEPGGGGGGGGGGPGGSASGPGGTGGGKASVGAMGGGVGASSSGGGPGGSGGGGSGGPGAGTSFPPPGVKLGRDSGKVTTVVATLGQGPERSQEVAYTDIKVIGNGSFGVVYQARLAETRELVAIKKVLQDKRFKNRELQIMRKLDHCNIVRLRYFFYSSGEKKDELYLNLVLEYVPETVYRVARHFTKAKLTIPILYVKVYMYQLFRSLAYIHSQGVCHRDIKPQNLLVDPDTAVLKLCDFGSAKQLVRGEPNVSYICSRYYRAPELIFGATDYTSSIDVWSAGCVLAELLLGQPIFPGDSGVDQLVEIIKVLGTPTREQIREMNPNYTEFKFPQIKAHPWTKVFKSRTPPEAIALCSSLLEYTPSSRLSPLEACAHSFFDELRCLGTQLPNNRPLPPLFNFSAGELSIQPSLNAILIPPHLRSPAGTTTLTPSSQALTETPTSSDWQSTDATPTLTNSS
IC50 [1] [µM],IC50 [2] [µM],EC50 [3] [µM],SMILES,% of Cells [3]
0.001 to 0.01,0.001 to 0.01,0.001 to 0.1,O=C1NC(=O)C(c2cnc3ccccn23)=C1c1cn2c3c(cc(C(F)(F)F)cc13)CN(C(=O)N1CCCCC1)CC2 [Compound I-1],+++ (“+++” indicates greater than about 11%)
0.001 to 0.01,0.001 to 0.01,0.001 to 0.1,N#Cc1cc2c3c(c1)c(C1=C(c4cnc5ccccn45)C(=O)NC1=O)cn3CCN(C(=O)N1CCCCC1)C2 [Compound I-2],+++ (“+++” indicates greater than about 11%)
0.001 to 0.01,0.001 to 0.01,0.001 to 0.1,C#Cc1cc2c3c(c1)c(C1=C(c4cnc5ccccn45)C(=O)NC1=O)cn3CCN(C(=O)N1CCCCC1)C2 [Compound I-3],+++ (“+++” indicates greater than about 11%)
0.001 to 0.01,0.001 to 0.01,0.1 to 1,Nc1cc2c3c(c1)c(C1=C(c4cnc5ccccn45)C(=O)NC1=O)cn3CCN(C(=O)N1CCCCC1)C2 [Compound I-4],+++ (“+++” indicates greater than about 11%)
0.001 to 0.01,0.001 to 0.01,0.001 to 0.1,O=C1NC(=O)C(c2cnc3ccccn23)=C1c1cn2c3c(cc(F)cc13)CN(C(=O)N1CCC(CO)CC1)CC2 [Compound I-6],+++ (“+++” indicates greater than about 11%)
0.001 to 0.01,0.001 to 0.01,0.001 to 0.1,O=C1NC(=O)C(c2cnc3ccccn23)=C1c1cn2c3c(cc(F)cc13)CN(C(=O)N1CCC(F)(F)CC1)CC2 [Compound I-7],++ (“++” indicates about 6-10%)
0.001 to 0.01,0.001 to 0.01,0.001 to 0.1,O=C1NC(=O)C(c2cnc3ccccn23)=C1c1cn2c3c(cc(F)cc13)CN(C(=O)N1CC3CCC(C1)O3)CC2 [Compound I-8],+++ (“+++” indicates greater than about 11%)
0.01 to 0.1,0.001 to 0.01,> 1,O=C1NC(=O)C(c2cn3c4c(cc(F)cc24)CN(C(=O)N2CCCCC2)CC3)=C1c1noc2ccccc12 [Compound I-9],+++ (“+++” indicates greater than about 11%)
0.001 to 0.01,0.001 to 0.01,> 1,CC(=O)Nc1cc2c3c(c1)c(C1=C(c4cnc5ccccn45)C(=O)NC1=O)cn3CCN(C(=O)N1CCCCC1)C2 [Compound I-10],+ (“+” indicates about 0-5%)
0.001 to 0.01,0.001 to 0.01,,O=C1NC(=O)C(c2cnc3ccccn23)=C1c1cn2c3c(cc(C(F)(F)F)cc13)CN(C(=O)N1CC3CCC(C1)O3)CC2 [Compound I-18],
0.001 to 0.01,0.001 to 0.01,,O=C1NC(=O)C(c2cnc3ccccn23)=C1c1cn2c3c(cc(F)cc13)CN(C(=O)N1CCC(F)(F)C(O)C1)CC2 (stereo not drawn) [Compound I-25],
0.001 to 0.01,0.001 to 0.01,,O=C1NC(=O)C(c2nnc3ccccn23)=C1c1cn2c3c(cc(F)cc13)CN(C(=O)N1CCCCC1)CC2 [Compound I-28],
0.001 to 0.01,0.001 to 0.01,,CN(C)C1CCN(C(=O)N2CCn3cc(C4=C(c5cnc6ccccn56)C(=O)NC4=O)c4cc(F)cc(c43)C2)CC1 [Compound I-36],
0.001 to 0.01,0.001 to 0.01,,CN1CCC(CN(C)C(=O)N2CCn3cc(C4=C(c5cnc6ccccn56)C(=O)NC4=O)c4cc(F)cc(c43)C2)CC1 [Compound I-39],
0.001 to 0.01,0.001 to 0.01,,CN1CCC2(CC1)CCN(C(=O)N1CCn3cc(C4=C(c5cnc6ccccn56)C(=O)NC4=O)c4cc(F)cc(c43)C1)C2 [Compound I-42],
0.001 to 0.01,0.001 to 0.01,,CN(C)C1CCN(C(=O)N2CCn3cc(C4=C(c5cnc6ccccn56)C(=O)NC4=O)c4cc(C#N)cc(c43)C2)CC1 [Compound I-45],
0.001 to 0.01,0.001 to 0.01,,CN1CCC(CN(C)C(=O)N2CCn3cc(C4=C(c5cnc6ccccn56)C(=O)NC4=O)c4cc(C#N)cc(c43)C2)CC1 [Compound I-46],
0.001 to 0.01,0.001 to 0.01,,CN1CCC2(CC1)CCN(C(=O)N1CCn3cc(C4=C(c5cnc6ccccn56)C(=O)NC4=O)c4cc(C#N)cc(c43)C1)C2 [Compound I-47],
